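Interpolation was linear, between the two tested concentrations surrounding the appropriate level; five concentrations were tested over 48 hours in 96-well plates. Abbreviation: GI50, concentration required for 50% inhibition of growth.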 The source made the active and inactive calls. Rule as the data show it: active = GI50 up to about 1.1 µM and inactive = higher.
How the values were obtained:
Assay in all cases: NCI tumour cell line growth inhibition, 48 h
786-0 = tested on: 786-0
A498 = tested on: A498
A549 = tested on: A549
ACHN = tested on: ACHN
BT-549 = tested on: BT-549
CAKI-1 = tested on: CAKI-1
CCRF-CEM = tested on: CCRF-CEM
COLO 205 = tested on: COLO 205
DU-145 = tested on: DU-145
EKVX = tested on: EKVX
HCC 2998 = tested on: HCC 2998
HCT-116 = tested on: HCT-116
HCT-15 = tested on: HCT-15
HOP-62 = tested on: HOP-62
HT-29 = tested on: HT-29
Hs-578T = tested on: Hs-578T
IGROV-1 = tested on: IGROV-1
K562 = tested on: K562
KM12 = tested on: KM12
LOX IMVI = tested on: LOX IMVI
M14 = tested on: M14
MCF7 = tested on: MCF7
MDA-MB-231 = tested on: MDA-MB-231
MDA-MB-435 = tested on: MDA-MB-435
MDA-N = tested on: MDA-N
MOLT-4 = tested on: MOLT-4
Malme-3M = tested on: Malme-3M
NCI-H226 = tested on: NCI-H226
NCI-H460 = tested on: NCI-H460
NCI-H522 = tested on: NCI-H522
NCI/ADR-RES = tested on: NCI/ADR-RES
OVCAR-3 = tested on: OVCAR-3
OVCAR-4 = tested on: OVCAR-4
OVCAR-5 = tested on: OVCAR-5
OVCAR-8 = tested on: OVCAR-8
PC-3 = tested on: PC-3
RPMI-8226 = tested on: RPMI-8226
RXF 393 = tested on: RXF 393
SF-268 = tested on: SF-268
SF-295 = tested on: SF-295
SK-MEL-28 = tested on: SK-MEL-28
SK-MEL-2 = tested on: SK-MEL-2
SK-MEL-5 = tested on: SK-MEL-5
SK-OV-3 = tested on: SK-OV-3
SN12C = tested on: SN12C
SNB-19 = tested on: SNB-19
SNB-75 = tested on: SNB-75
SR = tested on: SR
SW-620 = tested on: SW-620
T47D = tested on: T47D
TK-10 = tested on: TK-10
U-251 = tested on: U-251
UACC-257 = tested on: UACC-257
UACC-62 = tested on: UACC-62
UO-31 = tested on: UO-31
HL-60 = tested on: HL-60
HOP-92 = tested on: HOP-92
NCI-H23 = tested on: NCI-H23
SF-539 = tested on: SF-539

Q: Which results are given for `Cc1nnc2n1-c1ccccc1C(=S)N1CSCC21` (stereo not drawn)?
A: GI50 (786-0): > 100 µM (inactive); GI50 (A498): > 100 µM (inactive); GI50 (A549): > 100 µM (inactive); GI50 (ACHN): > 100 µM (inactive); GI50 (BT-549): > 100 µM (inactive); GI50 (CAKI-1): > 100 µM (inactive); GI50 (CCRF-CEM): > 100 µM (inactive); GI50 (COLO 205): > 100 µM (inactive); GI50 (DU-145): > 100 µM (inactive); GI50 (EKVX): > 100 µM (inactive); GI50 (HCC 2998): > 100 µM (inactive); GI50 (HCT-116): > 100 µM (inactive); GI50 (HCT-15): 79.3 µM; GI50 (HOP-62): > 100 µM (inactive); GI50 (HT-29): > 100 µM (inactive); GI50 (Hs-578T): > 100 µM (inactive); GI50 (IGROV-1): > 100 µM (inactive); GI50 (K562): > 100 µM (inactive); GI50 (KM12): > 100 µM (inactive); GI50 (LOX IMVI): > 100 µM (inactive); GI50 (M14): > 100 µM (inactive); GI50 (MCF7): > 100 µM (inactive); GI50 (MDA-MB-231): > 100 µM (inactive); GI50 (MDA-MB-435): > 100 µM (inactive); GI50 (MDA-N): > 100 µM (inactive); GI50 (MOLT-4): > 100 µM (inactive); GI50 (Malme-3M): > 100 µM (inactive); GI50 (NCI-H226): > 100 µM (inactive); GI50 (NCI-H460): > 100 µM (inactive); GI50 (NCI-H522): > 100 µM (inactive); GI50 (NCI/ADR-RES): > 100 µM (inactive); GI50 (OVCAR-3): > 100 µM (inactive); GI50 (OVCAR-4): > 100 µM (inactive); GI50 (OVCAR-5): > 100 µM (inactive); GI50 (OVCAR-8): > 100 µM (inactive); GI50 (PC-3): > 100 µM (inactive); GI50 (RPMI-8226): > 100 µM (inactive); GI50 (RXF 393): > 100 µM (inactive); GI50 (SF-268): > 100 µM (inactive); GI50 (SF-295): > 100 µM (inactive); GI50 (SK-MEL-28): > 100 µM (inactive); GI50 (SK-MEL-2): > 100 µM (inactive); GI50 (SK-MEL-5): > 100 µM (inactive); GI50 (SK-OV-3): > 100 µM (inactive); GI50 (SN12C): > 100 µM (inactive); GI50 (SNB-19): > 100 µM (inactive); GI50 (SNB-75): > 100 µM (inactive); GI50 (SR): > 100 µM (inactive); GI50 (SW-620): > 100 µM (inactive); GI50 (T47D): > 100 µM (inactive); GI50 (TK-10): > 100 µM (inactive); GI50 (U-251): > 100 µM (inactive); GI50 (UACC-257): > 100 µM (inactive); GI50 (UACC-62): > 100 µM (inactive); GI50 (UO-31): > 100 µM (inactive)

Q: For `Clc1ccc(Cc2nc3ccccc3o2)cc1`, which GI50 (786-0) is on record?
A: The GI50 was 96.4 µM (inactive).

Q: What about the GI50 (A549) of the same molecule?
A: Its GI50 is 75 µM (inactive).

Q: And the GI50 (ACHN)?
A: Its GI50 is > 100 µM (inactive).

Q: What about the GI50 (BT-549) of the same molecule?
A: Its GI50 is 35.8 µM (inactive).

Q: And the GI50 (CAKI-1)?
A: Its GI50 is 54.8 µM (inactive).

Q: And the GI50 (CCRF-CEM)?
A: The GI50 was 40.1 µM (inactive).

Q: And the GI50 (COLO 205)?
A: Its GI50 is 74.6 µM (inactive).

Q: What about the GI50 (DU-145) of the same molecule?
A: Its GI50 is > 100 µM (inactive).

Q: What about the GI50 (EKVX) of the same molecule?
A: Its GI50 is 40.1 µM (inactive).

Q: And the GI50 (HCC 2998)?
A: The GI50 was 54 µM (inactive).

Q: What about the GI50 (HCT-116) of the same molecule?
A: The GI50 was 66.7 µM (inactive).

Q: What about the GI50 (HCT-15) of the same molecule?
A: Its GI50 is 39.3 µM.

Q: And the GI50 (HL-60)?
A: The GI50 was 40.2 µM (inactive).

Q: And the GI50 (HOP-62)?
A: Its GI50 is > 100 µM (inactive).

Q: And the GI50 (HOP-92)?
A: Its GI50 is > 100 µM (inactive).

Q: What about the GI50 (HT-29) of the same molecule?
A: The GI50 was 40.2 µM (inactive).

Q: What about the GI50 (Hs-578T) of the same molecule?
A: The GI50 was > 100 µM (inactive).

Q: And the GI50 (IGROV-1)?
A: The GI50 was > 100 µM (inactive).

Q: And the GI50 (K562)?
A: Its GI50 is 50.7 µM (inactive).

Q: What about the GI50 (KM12) of the same molecule?
A: Its GI50 is 69.8 µM (inactive).

Q: What about the GI50 (LOX IMVI) of the same molecule?
A: The GI50 was > 100 µM (inactive).

Q: And the GI50 (M14)?
A: The GI50 was > 100 µM (inactive).

Q: And the GI50 (MCF7)?
A: Its GI50 is 51.4 µM (inactive).

Q: And the GI50 (MDA-MB-231)?
A: The GI50 was > 100 µM (inactive).

Q: And the GI50 (MDA-MB-435)?
A: Its GI50 is > 100 µM (inactive).

Q: And the GI50 (MDA-N)?
A: Its GI50 is > 100 µM (inactive).

Q: And the GI50 (MOLT-4)?
A: Its GI50 is 38.5 µM (inactive).

Q: And the GI50 (Malme-3M)?
A: Its GI50 is > 100 µM (inactive).

Q: What about the GI50 (NCI-H226) of the same molecule?
A: The GI50 was 40.4 µM (inactive).

Q: What about the GI50 (NCI-H23) of the same molecule?
A: The GI50 was 56 µM (inactive).

Q: What about the GI50 (NCI-H460) of the same molecule?
A: Its GI50 is > 100 µM (inactive).

Q: And the GI50 (NCI-H522)?
A: The GI50 was 33.8 µM (inactive).

Q: And the GI50 (NCI/ADR-RES)?
A: Its GI50 is 42 µM (inactive).

Q: What about the GI50 (OVCAR-3) of the same molecule?
A: Its GI50 is 52.8 µM (inactive).

Q: And the GI50 (OVCAR-4)?
A: The GI50 was 48.2 µM (inactive).

Q: What about the GI50 (OVCAR-5) of the same molecule?
A: Its GI50 is > 100 µM (inactive).

Q: What about the GI50 (OVCAR-8) of the same molecule?
A: The GI50 was > 100 µM (inactive).

Q: And the GI50 (PC-3)?
A: The GI50 was 55.8 µM (inactive).

Q: And the GI50 (RPMI-8226)?
A: Its GI50 is 27.6 µM (inactive).

Q: And the GI50 (RXF 393)?
A: Its GI50 is 25.3 µM (inactive).

Q: And the GI50 (SF-268)?
A: Its GI50 is > 100 µM (inactive).

Q: What about the GI50 (SF-295) of the same molecule?
A: The GI50 was 57.8 µM (inactive).

Q: And the GI50 (SF-539)?
A: Its GI50 is > 100 µM (inactive).

Q: And the GI50 (SK-MEL-28)?
A: The GI50 was > 100 µM (inactive).

Q: And the GI50 (SK-MEL-2)?
A: Its GI50 is > 100 µM (inactive).

Q: What about the GI50 (SK-MEL-5) of the same molecule?
A: The GI50 was 31.3 µM (inactive).

Q: And the GI50 (SK-OV-3)?
A: The GI50 was > 100 µM (inactive).

Q: What about the GI50 (SN12C) of the same molecule?
A: The GI50 was > 100 µM (inactive).

Q: What about the GI50 (SNB-19) of the same molecule?
A: The GI50 was > 100 µM (inactive).

Q: And the GI50 (SNB-75)?
A: Its GI50 is 20 µM (inactive).

Q: And the GI50 (SR)?
A: The GI50 was 50.5 µM (inactive).

Q: What about the GI50 (SW-620) of the same molecule?
A: Its GI50 is > 100 µM (inactive).

Q: And the GI50 (T47D)?
A: Its GI50 is 27.2 µM (inactive).

Q: And the GI50 (TK-10)?
A: Its GI50 is > 100 µM (inactive).

Q: What about the GI50 (U-251) of the same molecule?
A: The GI50 was 72.1 µM (inactive).

Q: And the GI50 (UACC-257)?
A: The GI50 was 52.1 µM (inactive).

Q: What about the GI50 (UACC-62) of the same molecule?
A: The GI50 was > 100 µM (inactive).

Q: And the GI50 (UO-31)?
A: The GI50 was 67.6 µM (inactive).
